In brackets after ≈: the same amount, converted by molar mass.
Assays:
[1] = system: Enterobacteriaceae; assay: Antimicrobial activity against ceftazidime-susceptible Enterobacteriaceae assessed as intermediate isolate by broth microdilution method; assay type: functional
[2] = system: Proteus mirabilis; assay: Antimicrobial activity against Proteus mirabilis assessed as susceptible isolate by broth microdilution method; assay type: functional
[3] = system: Citrobacter; assay: Antimicrobial activity against Citrobacter with nonderepressed AmpC beta-lactamsae by broth microdilution method; assay type: functional
[4] = system: Staphylococcus aureus; assay: Antimicrobial activity against methicillin-susceptible Staphylococcus aureus by broth microdilution method; assay type: functional; conditions: Staphylococcus aureus; for MIC50: read-out: MIC50; for MIC90: read-out: MIC90
[5] = system: Pseudomonas aeruginosa; assay: Antimicrobial activity against Pseudomonas aeruginosa isolated from non-ICU patient assessed as resistant isolate by broth microdilution method
[6] = system: Acinetobacter; assay: Antimicrobial activity against Acinetobacter assessed as resistant isolate by broth microdilution method; assay type: functional
[7] = system: Acinetobacter; assay: Antimicrobial activity against imipenem non-susceptible Acinetobacter assessed as intermediate isolate by broth microdilution method; assay type: functional
[8] = system: Proteus mirabilis; assay: Antimicrobial activity against Non-ESBL Proteus mirabilis assessed as susceptible isolate by broth microdilution method; assay type: functional
[9] = system: Klebsiella pneumoniae; assay: Antimicrobial activity against Non-ESBL Klebsiella pneumoniae by broth microdilution method; assay type: functional
[10] = system: Serratia marcescens; assay: Antimicrobial activity against Ceftazidime susceptible Serratia marcescens assessed as resistant isolate by broth microdilution method; assay type: functional
[11] = system: Klebsiella pneumoniae; assay: Antimicrobial activity against Non-ESBL Klebsiella pneumoniae assessed as intermediate isolate by broth microdilution method; assay type: functional
[12] = system: Klebsiella pneumoniae; assay: Antimicrobial activity against Klebsiella pneumoniae by broth microdilution method; assay type: functional
[13] = system: Pseudomonas aeruginosa; assay: Antimicrobial activity against Ceftazidime susceptible Pseudomonas aeruginosa assessed as intermediate isolate by broth microdilution method; assay type: functional
[14] = system: Proteus mirabilis; assay: Antimicrobial activity against Proteus mirabilis assessed as intermediate isolate by broth microdilution method; assay type: functional
[15] = system: Enterobacter cloacae; assay: Antimicrobial activity against Enterobacter cloacae with derepressed AmpC beta-lactamsae assessed as susceptible isolate by broth microdilution method; assay type: functional
[16] = system: Staphylococcus; assay: Antimicrobial activity against methicillin-susceptible coagulase-negative Staphylococcus by broth microdilution method; assay type: functional; conditions: Staphylococcus; for MIC50: read-out: MIC50; for MIC90: read-out: MIC90
[17] = system: Citrobacter; assay: Antimicrobial activity against Citrobacter with derepressed AmpC beta-lactamsae assessed as intermediate isolate by broth microdilution method; assay type: functional
[18] = system: Proteus mirabilis; assay: Antimicrobial activity against Non-ESBL Proteus mirabilis assessed as intermediate isolate by broth microdilution method; assay type: functional
[19] = system: Pseudomonas aeruginosa; assay: Antimicrobial activity against Pseudomonas aeruginosa isolated from non-ICU patient by broth microdilution method
[20] = system: Enterobacter cloacae; assay: Antimicrobial activity against Enterobacter cloacae with nonderepressed AmpC beta-lactamsae assessed as susceptible isolate by broth microdilution method; assay type: functional
[21] = system: Enterobacter cloacae; assay: Antimicrobial activity against Enterobacter cloacae with derepressed AmpC beta-lactamsae by broth microdilution method; assay type: functional
[22] = system: Pseudomonas aeruginosa; assay: Antimicrobial activity against Ceftazidime non-susceptible Pseudomonas aeruginosa assessed as intermediate isolate by broth microdilution method; assay type: functional
[23] = system: Klebsiella pneumoniae; assay: Antimicrobial activity against ESBL producing Klebsiella pneumoniae by broth microdilution method; assay type: functional
[24] = system: Proteus mirabilis; assay: Antimicrobial activity against ESBL producing Proteus mirabilis assessed as intermediate isolate by broth microdilution method; assay type: functional
[25] = system: Klebsiella pneumoniae; assay: Antimicrobial activity against Klebsiella pneumoniae assessed as susceptible isolate by broth microdilution method; assay type: functional
[26] = system: Streptococcus pneumoniae; assay: Antimicrobial activity against penicillin-resistant Streptococcus pneumoniae assessed as resistant isolate by broth microdilution method; assay type: functional
[27] = system: Acinetobacter; assay: Antimicrobial activity against imipenem susceptible Acinetobacter assessed as intermediate isolate by broth microdilution method; assay type: functional
[28] = system: Escherichia coli; assay: Antimicrobial activity against Escherichia coli assessed as intermediate isolate by broth microdilution method; assay type: functional
[29] = system: Staphylococcus aureus; assay: Antimicrobial activity against methicillin-susceptible Staphylococcus aureus assessed as susceptible isolate by broth microdilution method; assay type: functional
[30] = system: Escherichia coli; assay: Antimicrobial activity against Non-ESBL Escherichia coli assessed as susceptible isolate by broth microdilution method; assay type: functional
[31] = system: Serratia marcescens; assay: Antimicrobial activity against Serratia marcescens assessed as intermediate isolate by broth microdilution method; assay type: functional
[32] = system: Klebsiella pneumoniae; assay: Antimicrobial activity against ESBL producing Klebsiella pneumoniae assessed as susceptible isolate by broth microdilution method; assay type: functional
[33] = system: Staphylococcus; assay: Antimicrobial activity against methicillin-susceptible coagulase-negative Staphylococcus assessed as susceptible isolate by broth microdilution method; assay type: functional
[34] = system: Citrobacter; assay: Antimicrobial activity against Citrobacter with nonderepressed AmpC beta-lactamsae assessed as susceptible isolate by broth microdilution method; assay type: functional
[35] = system: Pseudomonas aeruginosa; assay: Antimicrobial activity against imipenem non-susceptible Pseudomonas aeruginosa assessed as susceptible isolate by broth microdilution method; assay type: functional
[36] = system: Enterobacter cloacae; assay: Antimicrobial activity against Enterobacter cloacae with derepressed AmpC beta-lactamsae assessed as intermediate isolate by broth microdilution method; assay type: functional
[37] = system: Pseudomonas aeruginosa; assay: Antimicrobial activity against Ceftazidime susceptible Pseudomonas aeruginosa assessed as susceptible isolate by broth microdilution method; assay type: functional
[38] = system: Citrobacter; assay: Antimicrobial activity against Citrobacter with nonderepressed AmpC beta-lactamsae assessed as intermediate isolate by broth microdilution method; assay type: functional
[39] = system: Proteus mirabilis; assay: Antimicrobial activity against Proteus mirabilis by broth microdilution method; assay type: functional
[40] = system: Enterobacteriaceae; assay: Antimicrobial activity against Ceftazidime non-susceptible Enterobacteriaceae assessed as susceptible isolate by broth microdilution method; assay type: functional
[41] = system: Streptococcus pneumoniae; assay: Antimicrobial activity against penicillin-intermediate Streptococcus pneumoniae by broth microdilution method; assay type: functional
[42] = system: Pseudomonas aeruginosa; assay: Antimicrobial activity against Pseudomonas aeruginosa isolated from non-ICU patient by broth microdilution method; assay type: functional
[43] = system: Acinetobacter; assay: Antimicrobial activity against imipenem susceptible Acinetobacter assessed as susceptible isolate by broth microdilution method; assay type: functional
[44] = system: Citrobacter; assay: Antimicrobial activity against Citrobacter with derepressed AmpC beta-lactamsae by broth microdilution method; assay type: functional
[45] = system: Pseudomonas aeruginosa; assay: Antimicrobial activity against Ceftazidime non-susceptible Pseudomonas aeruginosa assessed as resistant isolate by broth microdilution method; assay type: functional
[46] = system: Serratia marcescens; assay: Antimicrobial activity against Serratia marcescens assessed as susceptible isolate by broth microdilution method; assay type: functional
[47] = system: Pseudomonas aeruginosa; assay: Antimicrobial activity against Pseudomonas aeruginosa isolated from patient by broth microdilution method
[48] = system: Acinetobacter; assay: Antimicrobial activity against Acinetobacter assessed as intermediate isolate by broth microdilution method; assay type: functional
[49] = system: Klebsiella pneumoniae; assay: Antimicrobial activity against Klebsiella pneumoniae assessed as intermediate isolate by broth microdilution method; assay type: functional
[50] = system: Proteus mirabilis; assay: Antimicrobial activity against Non-ESBL Proteus mirabilis assessed as resistant isolate by broth microdilution method; assay type: functional
[51] = system: Pseudomonas aeruginosa; assay: Antimicrobial activity against Pseudomonas aeruginosa isolated from ICU patient by broth microdilution method; assay type: functional
[52] = system: Streptococcus pneumoniae; assay: Antimicrobial activity against penicillin-resistant Streptococcus pneumoniae by broth microdilution method; assay type: functional; conditions: Streptococcus pneumoniae; for MIC50: read-out: MIC50; for MIC90: read-out: MIC90
[53] = system: Serratia marcescens; assay: Antimicrobial activity against Ceftazidime susceptible Serratia marcescens assessed as intermediate isolate by broth microdilution method; assay type: functional

## C[C@@H](O)[C@H]1C(=O)N2C(C(=O)O)=C(SCCNC=N)C[C@H]12 [IMIPENEM ANHYDROUS]
[1]
  Activity: 0.3%
[2]
  Activity: 97.3%
[3]
  MIC50: 0.5 µg/mL (≈ 1.67 µM)
  MIC90: 2 µg/mL (≈ 6.68 µM)
[4]
  MIC50: 0.03 µg/mL (≈ 0.1 µM)
  MIC90: 0.03 µg/mL (≈ 0.1 µM)
[5]
  Activity: 17.2%
[6]
  Activity: 17%
[7]
  Activity: 3.9%
[8]
  Activity: 97.3%
[9]
  MIC50: 0.5 µg/mL (≈ 1.67 µM)
  MIC90: 1 µg/mL (≈ 3.34 µM)
[10]
  Activity: 0.8%
[11]
  Activity: 0.1%
[12]
  MIC50: 0.5 µg/mL (≈ 1.67 µM)
  MIC90: 1 µg/mL (≈ 3.34 µM)
[13]
  Activity: 7.6%
[14]
  Activity: 2.5%
[15]
  Activity: 100%
[16]
  MIC50: ≤ 0.015 µg/mL
  MIC90: 0.03 µg/mL (≈ 0.1 µM)
[17]
  Activity: 0%
[18]
  Activity: 2.5%
[19]
  Activity: 74.9%
[20]
  Activity: 99.5%
[21]
  MIC50: 1 µg/mL (≈ 3.34 µM)
  MIC90: 2 µg/mL (≈ 6.68 µM)
[22]
  Activity: 8.2%
[23]
  MIC50: 0.5 µg/mL (≈ 1.67 µM)
  MIC90: 1 µg/mL (≈ 3.34 µM)
[24]
  Activity: 0%
[25]
  Activity: 99.7%
[26]
  Activity: 2.1%
[27]
  Activity: 0%
[28]
  Activity: 0%
[29]
  Activity: 100%
[30]
  Activity: 100%
[31]
  Activity: 0.3%
[32]
  Activity: 95.5%
[33]
  Activity: 99.4%
[34]
  Activity: 99.8%
[35]
  Activity: 0%
[36]
  Activity: 0%
[37]
  Activity: 79.3%
[38]
  Activity: 0%
[39]
  MIC50: 2 µg/mL (≈ 6.68 µM)
  MIC90: 4 µg/mL (≈ 13.4 µM)
[40]
  Activity: 97.3%
[41]
  MIC50: 0.03 µg/mL (≈ 0.1 µM)
  MIC90: 0.25 µg/mL (≈ 0.835 µM)
[42]
  MIC50: 4 µg/mL (≈ 13.4 µM)
  MIC90: 32 µg/mL (≈ 107 µM)
[43]
  Activity: 100%
[44]
  MIC50: 1 µg/mL (≈ 3.34 µM)
  MIC90: 2 µg/mL (≈ 6.68 µM)
[45]
  Activity: 36.4%
[46]
  Activity: 98.9%
[47]
  Activity: 7.9%
[48]
  Activity: 0.7%
[49]
  Activity: 0.2%
[50]
  Activity: 0.2%
[51]
  MIC50: 4 µg/mL (≈ 13.4 µM)
  MIC90: 32 µg/mL (≈ 107 µM)
[52]
  MIC50: 0.5 µg/mL (≈ 1.67 µM)
  MIC90: 1 µg/mL (≈ 3.34 µM)
[53]
  Activity: 0.3%

## C[C@@H](O)[C@H]1C(=O)N2C(C(=O)O)=C(S[C@@H]3CN[C@H](CNS(N)(=O)=O)C3)[C@H](C)[C@H]12 [DORIPENEM]
[2]
  Activity: 98.9%
[3]
  MIC50: 0.03 µg/mL (≈ 0.0713 µM)
  MIC90: 0.06 µg/mL (≈ 0.143 µM)
[4]
  MIC50: 0.03 µg/mL (≈ 0.0713 µM)
  MIC90: 0.06 µg/mL (≈ 0.143 µM)
[8]
  Activity: 98.9%
[9]
  MIC50: 0.03 µg/mL (≈ 0.0713 µM)
  MIC90: 0.06 µg/mL (≈ 0.143 µM)
[12]
  MIC50: 0.03 µg/mL (≈ 0.0713 µM)
  MIC90: 0.06 µg/mL (≈ 0.143 µM)
[15]
  Activity: 99%
[16]
  MIC50: 0.03 µg/mL (≈ 0.0713 µM)
  MIC90: 0.06 µg/mL (≈ 0.143 µM)
[19]
  Activity: 87.9%
[20]
  Activity: 99.3%
[21]
  MIC50: 0.12 µg/mL (≈ 0.285 µM)
  MIC90: 0.25 µg/mL (≈ 0.595 µM)
[23]
  MIC50: 0.03 µg/mL (≈ 0.0713 µM)
  MIC90: 0.12 µg/mL (≈ 0.285 µM)
[25]
  Activity: 99.6%
[30]
  Activity: 99.8%
[32]
  Activity: 95.5%
[34]
  Activity: 99.8%
[35]
  Activity: 55.6%
[37]
  Activity: 92.3%
[39]
  MIC50: 0.12 µg/mL (≈ 0.285 µM)
  MIC90: 0.5 µg/mL (≈ 1.19 µM)
[40]
  Activity: 96.7%
[41]
  MIC50: 0.03 µg/mL (≈ 0.0713 µM)
  MIC90: 0.5 µg/mL (≈ 1.19 µM)
[42]
  MIC50: 0.25 µg/mL (≈ 0.595 µM)
  MIC90: 4 µg/mL (≈ 9.51 µM)
[43]
  Activity: 89.1%
[44]
  MIC50: 0.06 µg/mL (≈ 0.143 µM)
  MIC90: 0.06 µg/mL (≈ 0.143 µM)
[46]
  Activity: 98.7%
[51]
  MIC50: 0.5 µg/mL (≈ 1.19 µM)
  MIC90: 8 µg/mL (≈ 19 µM)
[52]
  MIC50: 0.5 µg/mL (≈ 1.19 µM)
  MIC90: 1 µg/mL (≈ 2.38 µM)

Reference: ChEMBL document CHEMBL1275550, “In vitro activity of doripenem, a carbapenem for the treatment of challenging infections caused by gram-negative bacteria, against recent clinical isolates from the United States” (2008)
